Measured values as given in patent US7598258B2, “Quinoline derivatives and quinazoline derivatives inhibiting autophosphorylation of macrophage colony stimulating factor receptor” (Kirin Beer Kabushiki Kaisha, priority 2002, dated 2009).
pIC50: −log10 of the molar value.

The compounds below were run against T1, mouse c-fms (Mus musculus, UniProt P09581) (assay: Inhibition of c-fms autophosphorylation in macrophage-like cell line BAC-1.2F5 by M-CSF stimulation (ELISA)). Settings: BAC-1.2F5 cells, human recombinant M-CSF 50 ng/ml, read-out: c-fms autophosphorylation 50% inhibitory concentration (IC50).
T1 construct: Macrophage-like cell line BAC-1.2F5 which expresses c-fms as a M-CSF receptor on cell membranes; endogenous in cells; host or cells: BAC-1.2F5 mouse macrophage-like cell line
T1 sequence (P09581 20-977): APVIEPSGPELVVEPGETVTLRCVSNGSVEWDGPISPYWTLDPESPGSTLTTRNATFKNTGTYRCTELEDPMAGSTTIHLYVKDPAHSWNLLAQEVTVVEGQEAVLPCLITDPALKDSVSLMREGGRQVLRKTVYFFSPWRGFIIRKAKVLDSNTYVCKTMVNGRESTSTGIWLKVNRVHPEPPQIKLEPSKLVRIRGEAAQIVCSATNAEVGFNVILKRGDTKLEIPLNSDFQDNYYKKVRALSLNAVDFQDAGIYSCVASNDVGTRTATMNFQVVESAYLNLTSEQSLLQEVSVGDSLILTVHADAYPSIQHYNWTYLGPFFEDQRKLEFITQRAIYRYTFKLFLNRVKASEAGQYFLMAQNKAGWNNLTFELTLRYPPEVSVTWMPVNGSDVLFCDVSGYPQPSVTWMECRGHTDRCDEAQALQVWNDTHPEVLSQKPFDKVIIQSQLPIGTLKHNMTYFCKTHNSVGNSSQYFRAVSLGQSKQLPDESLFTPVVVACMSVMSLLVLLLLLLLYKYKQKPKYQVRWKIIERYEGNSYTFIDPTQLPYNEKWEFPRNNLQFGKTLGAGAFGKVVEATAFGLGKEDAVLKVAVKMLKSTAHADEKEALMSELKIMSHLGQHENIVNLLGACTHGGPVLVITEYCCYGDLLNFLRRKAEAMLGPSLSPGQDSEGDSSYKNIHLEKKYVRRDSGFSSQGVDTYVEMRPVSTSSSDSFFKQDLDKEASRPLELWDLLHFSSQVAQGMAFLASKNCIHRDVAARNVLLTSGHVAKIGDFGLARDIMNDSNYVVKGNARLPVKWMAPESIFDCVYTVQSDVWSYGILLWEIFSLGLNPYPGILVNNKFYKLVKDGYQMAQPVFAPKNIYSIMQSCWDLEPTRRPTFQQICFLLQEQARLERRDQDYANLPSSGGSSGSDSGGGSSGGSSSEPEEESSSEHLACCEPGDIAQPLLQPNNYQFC
Type: cell-based
Experimental: Macrophage-like cell line BAC-1.2F5 which expresses c-fms as a M-CSF receptor on cell membranes (CLAUDIA M. et al., J. Cell. Physiol., 130, 420-427 (1987), “Isolation and Characterization of a Cloned Growth Factor Dependent Macrophage Cell Line, BAC1.2F5”) was cultured at 37° C. in a DMEM medium containing L-cell supernatant and 10% fetal calf serum (GIBCO BRL) in a 5% CO2 incubator until about 50 to 70% confluent. The harvested cells were inoculated into wells, each containing the same medium, in a collagen type I coat 96-well flat-bottom plate in an amount of 5.0×10^4 per well, and cultured at 37° C. for 12 hr. Thereafter, the medium was replaced with a DMEM medium containing a 0.1% fetal calf serum and cultured for 12 hr. Thereafter, a test compound dissolved in dimethyl sulfoxide was added to each well, and cells were incubated at 37° C. for one hr. Human recombinant M-CSF was added to a final concentration of 50 ng/ml, and cells were stimulated at 37° C. for 6 min. After the medium was removed, 50 μl of a solubilization buffer (20 mM HEPES (pH 7.4), 150 mM NaCl, 0.2% Triton X-100, 10% glycerol, 5 mM sodium orthovanadylate, 5 mM disodium ethylenediaminetetraacetate, and 2 mM Na4P2O7) was added thereto. The mixture was shaken at 4° C. for 2 hr to prepare a cell extract as an assay sample which was then used for an ELISA assay.
The plate for the ELISA assay was prepared as follows. Phosphate buffered saline (50 μl, pH 7.4) containing 5 μg/ml of anti-phospho-tyrosine antibody (PY20; Transduction Laboratories) was added to a microplate for ELISA (Maxisorp; purchased from NUNC), followed by standing at 4° C. overnight to be immobilized on the wells. Thereafter, each well was washed twice with 200 μl of a Ca- and Mg-free phosphate buffer containing 0.1% Tween-20 (hereinafter referred to as “PBS-T”), and 200 μl of a blocking solution (Dainippon Pharmaceutical Co. Ltd.: BlockAce) was added to each well, and the wells were then allowed to stand at room temperature for 2 hr for blocking.
Separately, phosphate buffered saline (50 μl, pH 7.4) containing 5 μg/ml of anti-phospho-tyrosine antibody (PY20; Transduction Laboratories) was added to a microplate for ELISA (Maxisorp; purchased from NUNC), followed by standing at 4° C. overnight to form a solid phase on the wells. After washing of the plate, 300 μl of a blocking solution was added, followed by standing at room temperature for 2 hr to perform blocking. After washing, the whole quantity of the cell extract was transferred to the wells, and the plate was then allowed to stand at 4° C. overnight. After washing, anti-c-fms antiserum (Upstate Biotechnology, Inc.) was allowed to react at room temperature for one hr, and, after washing, a peroxidase-labeled anti-rabbit Ig antibody (Amersham) was allowed to react at room temperature for one hr. After washing, a chromophoric substrate for peroxidase (Sumitomo Bakelite Co., Ltd.) was added thereto to initiate a reaction. After a suitable level of color development, a reaction termination solution was added to stop the reaction, and the absorbance at 450 nm was measured with a microplate reader. The c-fms phosphorylation activity for each well was determined by presuming the absorbance without the addition of the test compound and with the addition of M-CSF to be 100% c-fms phosphorylation activity and the absorbance without the addition of the test compound and M-CSF to be 0% c-fms phosphorylation activity. The concentration of the test compound was varied on several levels, the c-fms phosphorylation inhibitory rate was determined for each case, and the concentration of the test compound necessary for inhibiting 50% of c-fms phosphorylation (IC50) was calculated.

**Q.** With `CC[C@H](NC(=O)Nc1ccc(Oc2ccnc3cc(OC)c(OC)cc23)cc1)c1ccccc1` [Example 37, N-{4-[(6,7-Dimethoxy-4-quinolyl)oxy]phenyl}-N′-[(1S)-1-phenylpropyl]urea] as the compound, how does the pIC50 read?
**A.** The pIC50 was 8.30.

**Q.** `CC[C@@H](NC(=O)Nc1ccc(Oc2ccnc3cc(OC)c(OC)cc23)cc1)c1ccccc1` [Example 38, N-{4-[(6,7-Dimethoxy-4-quinolyl)oxy]phenyl}-N′-[(1R)-1-phenylpropyl]urea] was tested. Which pIC50 did it give?
**A.** Its pIC50 is 8.24.

**Q.** How did the pIC50 turn out when `COc1cc2nccc(Oc3ccc(NC(=O)N[C@H]4CCc5ccccc54)cc3)c2cc1OC` [Example 43, N-[(1S)-2,3-Dihydro-1H-1-indenyl]-N′-{4-[(6,7-dimethoxy-4-quinolyl)oxy]phenyl}urea] was run?
**A.** The pIC50 was 8.51.

**Q.** How did the pIC50 turn out when `COc1cc2nccc(Oc3ccc(NC(=O)N[C@@H]4CCc5ccccc54)cc3)c2cc1OC` [Example 44, N-[(1R)-2,3-Dihydro-1H-1-indenyl]-N′-{4-[(6,7-dimethoxy-4-quinolyl)oxy]phenyl}urea] was run?
**A.** Its pIC50 is 8.74.

**Q.** With `COc1cc(Oc2ccnc3cc(OC)c(OC)cc23)ccc1NC(=O)N[C@@H](C)c1nccs1` [Example 75, N-{4-[(6,7-Dimethoxy-4-quinolyl)oxy]-2-methoxyphenyl}-N′-[(1S)-1-(1,3-thiazol-2-yl)ethyl]urea] as the compound, how does the pIC50 read?
**A.** Its pIC50 is 8.68.

**Q.** `COc1cc(Oc2ccnc3cc(OC)c(OC)cc23)ccc1NC(=O)N[C@H](C)c1nccs1` [Example 76, N-{4-[(6,7-Dimethoxy-4-quinolyl)oxy]-2-methoxyphenyl}-N′-[(1R)-1-(1,3-thiazol-2-yl)ethyl]urea] was tested. Which pIC50 did it give?
**A.** The pIC50 was 8.15.

**Q.** With `COc1cc2nccc(Oc3ccc(NC(=O)NC(C)c4nc(C)c(C)s4)cc3)c2cc1OC` (centres unmarked) [Example 94, N-{4-[(6,7-Dimethoxy-4-quinolyl)oxy]phenyl}-N′-[1-(4,5-dimethyl-1,3-thiazol-2-yl)ethyl]urea] as the compound, how does the pIC50 read?
**A.** Its pIC50 is 7.27.

**Q.** How did the pIC50 turn out when `COc1cc2nccc(Oc3ccc(NC(=O)NC(C)c4nc(C)c(C)s4)c(F)c3)c2cc1OC` (centres unmarked) [Example 95, N-{4-[(6,7-Dimethoxy-4-quinolyl)oxy]-2-fluorophenyl}-N′-[1-(4,5-dimethyl-1,3-thiazol-2-yl)ethyl]urea] was run?
**A.** The pIC50 was 7.42.

**Q.** How did the pIC50 turn out when `COc1cc2nccc(Oc3ccc(NC(=O)NC(C)c4nc(C)c(C)s4)c(C)c3)c2cc1OC` (centres unmarked) [Example 96, N-{4-[(6,7-Dimethoxy-4-quinolyl)oxy]-2-methylphenyl}-N′-[1-(4,5-dimethyl-1,3-thiazol-2-yl)ethyl]urea] was run?
**A.** The pIC50 was 6.83.

**Q.** `COc1cc2nccc(Oc3ccc(NC(=O)NC(C)c4nc(C)c(C)s4)c(C(F)(F)F)c3)c2cc1OC` (centres unmarked) [Example 97, N-[4-[(6,7-Dimethoxy-4-quinolyl)oxy]-2-(trifluoromethyl)phenyl]-N′-[1-(4,5-dimethyl-1,3-thiazol-2-yl)ethyl]urea] was tested. Which pIC50 did it give?
**A.** Its pIC50 is 6.92.

**Q.** `COc1cc2nccc(Oc3cc(C)c(NC(=O)NC(C)c4nc(C)c(C)s4)cc3C)c2cc1OC` (centres unmarked) [Example 98, N-{4-[(6,7-Dimethoxy-4-quinolyl)oxy]-2,5-dimethylphenyl}-N′-[1-(4,5-dimethyl-1,3-thiazol-2-yl)ethyl]urea] was tested. Which pIC50 did it give?
**A.** Its pIC50 is 6.37.
